Data: publication PMC10045483, “Comparative Pharmacokinetic Study of 5 Active Ingredients after Oral Administration of Zuogui Pill in Osteoporotic Rats with Different Syndrome Types” (International Journal of Analytical Chemistry, 2023)
Where two headings read alike, the source gives them in different places.

Tests used:
[1] = Pharmacokinetic study of 5 compounds in rat plasma after oral administration of Zuogui Pill extract (HPLC-MS/MS, noncompartmental analysis); format: in vivo, Female Sprague-Dawley rats; settings: oral Zuogui Pill extract 1.5 mL/100 g; for Cmax / Tmax / half-life / CL/F / MRT last / MRT inf: female, Sprague-Dawley, rat, po, 1.5 mL/100 g; for Cmax / Tmax / half-life / AUC0–t / AUC0–∞: n = 6; for CL/F: n = 6, read-out: CL_F_obs (converted); for MRT last: n = 6, read-out: MRT0–t; for MRT inf: n = 6, read-out: MRT0–∞
Method: Female Sprague-Dawley rats (180–220 g) were purchased from Shanghai Laboratory Animal Centre (Shanghai, China). The rats were maintained in a standard environment (22 ± 1°C, 60 ± 10% relative humidity, and a 12 h light/dark cycle) for one week to acclimate and fed water and food ad libitum. Twenty-four rats were divided randomly into […] and treated through ovary enucleation to establish the model of osteoporosis. Ten weeks after operation, osteoporosis models of kidney-yang-deficiency and kidney-yin-deficiency were established by intramuscular injection of hydrocortisone (25 mg/kg) and intragastric administration of thyroxine suspension (160 mg/kg) for 10 days, respectively. The femur of two rats from each group was then stained with hematoxylin and eosin (H&E) to assess histopathological change. Also, the validation of osteoporosis kidney-yang-deficiency and kidney-yin-deficiency models was judged by detecting the level of cyclic adenosine monophosphate (cAMP) and cyclic guanosine monophosphate (cGMP) in rat plasma. Laboratory Animal Management and Ethics Committee of Zhejiang Chinese Medical University approved all animal treatments (ZSLL-2014-48).
One hundred microliters of plasma was mixed with 100 μL of the IS solution, followed by 700 μL of methanol:acetonitrile (1 : 1). After 2 min of vortex mixing, the mixture was spun for 15 min at 8000 rpm and 4°C. The supernatants were collected and dried in a high-purity N2 environment. The residues were redissolved in 100 μL methanol and centrifuged for 15 min at 13000 rpm and 4°C. Finally, an aliquot of 10 μL supernatants was used to conduct the analysis.
Four groups of rats were orally administered with Zuogui Pill extract at a dose of 1.5 mL/100 g. Then, 0.3 mL blood samples were collected from orbital veins at 0, 0.08, 0.17, 0.25, 0.5, 1, 2, 4, 6, 8, 12, and 24 h after administration, placed in an anticoagulant tube, and centrifuged for 15 min at 5000 rpm and 4°C. The plasma was prepared and stored at −20°C until analysis.
Phoenix WinNonlin 6.4 software was used to estimate pharmacokinetic parameters using noncompartmental analysis. Furthermore, SPSS 26 software was used to compute comparisons of the pharmacokinetic data among the four groups according to a one-way ANOVA. The results are presented as mean ± SD.

[2] = Stability of analytes in rat plasma (QC samples) under storage conditions; settings: n = 5; for Stability, Room temperature for 4 h, Mean: 25°C; for Stability, Three freeze-thaw cycles, Mean: −20°C to 25°C
Method: QC samples at three levels using five replicates were used to evaluate the stability under the following conditions: 4 h at room temperature (25°C), 24 h in autosampler (4°C), and three freeze-thaw cycles (−20°C to 25°C).

[3] = osteoporosis rats (ovariectomized)
[4] = osteoporotic rats with kidney-yang-deficiency
[5] = osteoporotic rats with kidney-yin-deficiency
[6] = high QC (800, 16000, 3200, 400, 40 ng/mL in the same order)
[7] = low QC (2, 40, 8, 1, 0.1 ng/mL for chlorogenic acid, loganin, morroniside, aucubin, protocatechuic aldehyde)
[8] = middle QC (40, 800, 160, 20, 2 ng/mL in the same order)

OCC1=C[C@@H](O)[C@@H]2C=CO[C@@H](O[C@@H]3O[C@H](CO)[C@@H](O)[C@H](O)[C@H]3O)[C@H]12 [Aucubin, aucubin]
Cmax ([1]; normal rats): 84.4 ± 32.2 ng/mL | Tmax ([1]; normal rats): 0.38 ± 0.14 h | half-life ([1]; normal rats): 5.97 ± 2.89 h | CL/F ([1]; normal rats): 22.6 mL/min/kg | MRT last ([1]; normal rats): 5.38 ± 2.01 h | MRT inf ([1]; normal rats): 8.58 ± 2.71 h | Cmax [1, 3]: 103 ± 23.6 ng/mL | Tmax [1, 3]: 0.17 h | half-life [1, 3]: 3.67 ± 0.78 h | CL/F [1, 3]: 26.5 mL/min/kg | MRT last [1, 3]: 3.06 ± 0.12 h | MRT inf [1, 3]: 5.62 ± 1.09 h | Cmax [1, 4]: 96 ± 24.2 ng/mL | Tmax [1, 4]: 0.25 h | half-life [1, 4]: 7.4 ± 1.68 h | CL/F [1, 4]: 38.8 mL/min/kg | MRT last [1, 4]: 2.95 ± 0.38 h | MRT inf [1, 4]: 11.7 ± 1.31 h | Cmax [1, 5]: 181 ± 30.7 ng/mL | Tmax [1, 5]: 0.25 h | half-life [1, 5]: 8.68 ± 2.92 h | CL/F [1, 5]: 16 mL/min/kg | MRT last [1, 5]: 7.32 ± 1.92 h | MRT inf [1, 5]: 14.1 ± 5.85 h | AUC0–t ([1]; normal rats): 170.50 ± 64.82 h∗ng/mL | AUC0–∞ ([1]; normal rats): 204.69 ± 68.61 h∗ng/mL | AUC0–t [1, 3]: 116.40 ± 11.00 h∗ng/mL | AUC0–∞ [1, 3]: 155.64 ± 24.54 h∗ng/mL | AUC0–t [1, 4]: 48.33 ± 14.05^∗∗ h∗ng/mL | AUC0–∞ [1, 4]: 111.33 ± 29.94 h∗ng/mL | AUC0–t [1, 5]: 201.40 ± 32.43^∗∗ h∗ng/mL | AUC0–∞ [1, 5]: 272.67 ± 70.63^∗∗ h∗ng/mL | Stability, Room temperature for 4 h, Mean [2, 6]: 92.8% | Stability, Room temperature for 4 h, Mean [2, 7]: 89.8% | Stability, Room temperature for 4 h, Mean [2, 8]: 91.3% | Stability, Autosampler at 4°C for 24 h, Mean [2, 6]: 90.2% | Stability, Autosampler at 4°C for 24 h, Mean [2, 7]: 88.6% | Stability, Autosampler at 4°C for 24 h, Mean [2, 8]: 92.5% | Stability, Three freeze-thaw cycles, Mean [2, 6]: 89.1% | Stability, Three freeze-thaw cycles, Mean [2, 7]: 84.2% | Stability, Three freeze-thaw cycles, Mean [2, 8]: 86.9%

COC(=O)C1=CO[C@@H](O[C@@H]2O[C@H](CO)[C@@H](O)[C@H](O)[C@H]2O)[C@@H]2[C@@H](C)[C@@H](O)C[C@H]12 [Loganin, loganin]
Cmax ([1]; normal rats): 13500 ± 2030 ng/mL | Tmax ([1]; normal rats): 0.25 h | half-life ([1]; normal rats): 4.51 ± 0.45 h | CL/F ([1]; normal rats): 6.03 mL/min/kg | MRT last ([1]; normal rats): 4.58 ± 0.47 h | MRT inf ([1]; normal rats): 5.1 ± 0.41 h | Cmax [1, 3]: 8380 ± 1120 ng/mL | Tmax [1, 3]: 0.25 h | half-life [1, 3]: 2.74 ± 0.96 h | CL/F [1, 3]: 7.67 mL/min/kg | MRT last [1, 3]: 4.91 ± 1.29 h | MRT inf [1, 3]: 5.02 ± 1.34 h | Cmax [1, 4]: 14.7 ± 1.38 ng/mL | Tmax [1, 4]: 0.21 ± 0.05 h | half-life [1, 4]: 5.62 ± 1.63 h | CL/F [1, 4]: 4280 mL/min/kg | MRT last [1, 4]: 5.5 ± 0.67 h | MRT inf [1, 4]: 6.62 ± 0.49 h | Cmax [1, 5]: 16000 ± 2790 ng/mL | Tmax [1, 5]: 0.25 h | half-life [1, 5]: 3.75 ± 0.7 h | CL/F [1, 5]: 2.94 mL/min/kg | MRT last [1, 5]: 6.51 ± 0.91 h | MRT inf [1, 5]: 6.92 ± 0.98 h | AUC0–t ([1]; normal rats): 20134.29 ± 3958.79 h∗ng/mL | AUC0–∞ ([1]; normal rats): 20523.97 ± 3947.05 h∗ng/mL | AUC0–t [1, 3]: 17912.12 ± 6898.16 h∗ng/mL | AUC0–∞ [1, 3]: 17998.56 ± 6945.75 h∗ng/mL | AUC0–t [1, 5]: 41028.61 ± 6356.26^∗∗ h∗ng/mL | AUC0–∞ [1, 5]: 41727.10 ± 6203.34^∗∗ h∗ng/mL | Stability, Room temperature for 4 h, Mean [2, 6]: 85.6% | Stability, Room temperature for 4 h, Mean [2, 7]: 88.3% | Stability, Room temperature for 4 h, Mean [2, 8]: 87.4% | Stability, Autosampler at 4°C for 24 h, Mean [2, 6]: 84.4% | Stability, Autosampler at 4°C for 24 h, Mean [2, 7]: 94.6% | Stability, Autosampler at 4°C for 24 h, Mean [2, 8]: 85.8% | Stability, Three freeze-thaw cycles, Mean [2, 6]: 92.4% | Stability, Three freeze-thaw cycles, Mean [2, 7]: 86.4% | Stability, Three freeze-thaw cycles, Mean [2, 8]: 89.5%
